# Measured values: US7875287B2, “Tc-labeled arylpiperazine derivatives for imaging serotonin receptor” (Korea Atomic Energy Research Institute, priority 2005, dated 2011)
# Columns and labels:
# [1] = Paper electrophoresis in 0.1 M phosphate buffer (pH7.4); format: physicochemical; conditions: aqueous solution, 0.1 M phosphate buffer pH7.4, 45 min, 400 V (20 V/cm)
# Method: Filtered preparation was applied on a paper eluted with 0.1 M phosphate buffer (pH7.4) for 45 min. at a 400 V (20 V/cm).
# [2] = Stability of 99mTc-complex by reversed phase HPLC; format: physicochemical; conditions: for approximately 4 hours; reaction mixture, RP-HPLC
# Method: Radiochemical purity of ^99mTc-complex (25) was determined by HPLC using a C-18 reverse-phase column as a stationary phase and a water/ACN as a mobile phase, while maintaining a flow rate of 1 ml/min.
# The complex is stable (>90%) for approximately 4 hours.
# [3] = Static image scan of rabbits after intravenous injection; format: in vivo, male New Zealand white rabbits; conditions: rabbit, image 5 min after injection
# Method: Static image of male New Zealand white rabbits scanned at 5 and 10 min.
# At an image of 5 min. after the injection, high activity was found in the liver. A trace amount of ^99mTc-8-[3-({2-[4-(2-methoxy-phenyl)-piperazin-1-yl]-ethyl}-pyridin-2-yl-amino)-propyl]-[1,2,5,8]dithiadiazecan-6-one (25) seemed to be remained in the brain.
substance,measurement,setting,value
"^99mTc-8-[3-({2-[4-(2-methoxy-phenyl)-piperazin-1-yl]-ethyl}-pyridin-2-yl-amino)-propyl]-[1,2,5,8]dithiadiazecan-6-one [Compound 25]",charge observed in paper electrophoresis,[1],neutral charge
same,stability of the complex,[2],> 90%
same,activity in the liver on image,[3],high activity
same,amount remained in the brain on image,[3],trace amount
